From patent US12728149B2, “Pharmaceutical composition for preventing and treating depression, comprising herbal medicine complex extracts of Zizyphi spinosi Semen, Jujubae Fructus, Hordei Fructus Germinatus, Glycyrrhizae Radix et Rhizoma, Angelicae Gigantis Radix, and Beta vulgaris as active ingredients” (INDUSTRY-ACADEMIC COORPERATION FOUNDATION DAEGU HAANY …, priority 2023, dated 2026)

Assays:
mice [1] = assay: Tail suspension test (TST); format: in vivo
Method: (§1) All animal experiment procedures of the present disclosure were conducted in compliance with the preliminary review and ethics regulations of the Animal Experiment Ethics Committee of Daegu Haany University. 4-week-old male ICR mice (SPF/VAF CrljBgi:CD-1) were supplied from the Daehan Biolink (Chungcheongbuk-do, Korea), and adapted and used for 7 days in the pharmacology animal laboratory of Daegu Haany University. Each group consisted of 8 mice, and 5 mice were housed in polycarbonate mice cages and bred in a breeding room where a temperature of 23±1° C., humidity of 50±5%, and lighting time of 07:00 to 19:00 (12-hour cycle) were kept constant. During the adaptation period, feed and water were supplied without restrictions. […]
(§2) In order to verify whether there was an antidepressant effect of the herbal medicine complex extracts of Zizyphi spinosi Semen, Jujubae Fructus, Hordei Fructus Germinatus, Glycyrrhizae Radix et Rhizoma, Angelicae Gigantis Radix, and Beta vulgaris of the present disclosure, a tail suspension test (TST) was performed using experimental animals. The antidepressant effect was determined by measuring the immobility time during the tail suspension test, and experimental animals with tails alternated mobility and immobility, and the shorter the immobility time, there was the antidepressant effect. […]

mice [2] = assay: Forced swimming test (FST); format: in vivo
Method: as §1
as §2, with “a forced swimming” for “a tail suspension”, “test (FST)” for “test (TST)”, “the forced swimming” for “the tail suspension”, “and it was meant that” for “and experimental animals with tails alternated mobility and immobility, and the”, “time, the greater” for “time, there was”

[3] = imipramine 15 mg/kg intraperitoneally

Compound: CN(C)CCCN1c2ccccc2CCc2ccccc21 [Imipramine, imipramine]
- immobility time compared to the control group (mice [1]; [3]): decreased
- Immobility time (mice [1]; measured for 10 minutes, imipramine 15 mg/kg intraperitoneally for 1 week): 157.82 ± 11.02 s
- immobility time compared to the control group (mice [2]; [3]): reduced
- Immobility time (mice [2]; measured for 4 minutes, imipramine 15 mg/kg intraperitoneally for 1 week, test 30 minutes after administration on day 7): 177.01 ± 5.67 s
